Results on five compounds are retold here after article PMC2813186 (Biochemistry, 2009).

Series [1] has as its target T1, Prep (Mus musculus, UniProt Q9QUR6). As to the kind of experiment: Prep inhibition with CGRP. It is filed as biochemical.
The test system of series [2] is Prep. The series can be described thus: CNS tissue. To be noted: WT mice (C57BL/6), up to 4 hours.
The test system of a further series is recombinant Prep. As to the kind of experiment: recombinant Prep. To be noted: mouse, 25°C, up to 60 minutes.
In series [3] the target is T1, Prep. The series can be described thus: label-free LC-MS peptidomics of CNS tissues, S17092 versus vehicle treated mice. It is filed as in vivo. As to conditions: S17092 30 mg/kg i.p.

Ends that are not written are not given here.

T1 sequence (Q9QUR6 whole entry): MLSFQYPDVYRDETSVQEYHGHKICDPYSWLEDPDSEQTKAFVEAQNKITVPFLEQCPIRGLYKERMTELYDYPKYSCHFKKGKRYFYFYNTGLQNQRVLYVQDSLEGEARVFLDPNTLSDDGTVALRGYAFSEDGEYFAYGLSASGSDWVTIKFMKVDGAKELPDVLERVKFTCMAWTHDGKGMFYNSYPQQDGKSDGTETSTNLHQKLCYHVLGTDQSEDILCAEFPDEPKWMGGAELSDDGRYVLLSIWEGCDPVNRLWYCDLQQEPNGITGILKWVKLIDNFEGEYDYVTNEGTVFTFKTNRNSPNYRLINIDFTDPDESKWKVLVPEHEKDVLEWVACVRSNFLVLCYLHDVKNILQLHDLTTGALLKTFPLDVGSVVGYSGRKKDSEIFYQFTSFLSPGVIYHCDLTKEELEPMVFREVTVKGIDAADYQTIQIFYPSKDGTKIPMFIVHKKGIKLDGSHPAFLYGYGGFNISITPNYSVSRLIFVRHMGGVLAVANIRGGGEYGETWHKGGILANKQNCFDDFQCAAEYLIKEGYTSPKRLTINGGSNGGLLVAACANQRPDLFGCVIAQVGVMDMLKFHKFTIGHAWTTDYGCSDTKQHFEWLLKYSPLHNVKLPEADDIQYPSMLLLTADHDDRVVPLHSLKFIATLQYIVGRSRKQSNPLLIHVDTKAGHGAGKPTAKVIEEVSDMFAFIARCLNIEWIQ

The compound `CC(C)C[C@H](NC(=O)CNC(=O)[C@H](C)NC(=O)[C@H](CC(C)C)NC(=O)[C@H](CCCNC(=N)N)NC(=O)[C@H](Cc1c[nH]cn1)NC(=O)[C@@H](NC(=O)[C@@H](NC(=O)[C@@H]1CSSC[C@H](NC(=O)[C@@H](N)CO)C(=O)N[C@@H](CC(N)=O)C(=O)N[C@@H]([C@@H](C)O)C(=O)N[C@@H](C)C(=O)N[C@@H]([C@@H](C)O)C(=O)N1)C(C)C)[C@@H](C)O)C(=O)N[C@@H](CC(C)C)C(=O)N[C@@H](CO)C(=O)N[C@@H](CCCNC(=N)N)C(=O)N[C@@H](CO)C(=O)NCC(=O)NCC(=O)N[C@H](C(=O)N[C@H](C(=O)N[C@@H](CCCCN)C(=O)N[C@@H](CC(=O)O)C(=O)N[C@@H](CC(N)=O)C(=O)N[C@@H](Cc1ccccc1)C(=O)N[C@H](C(=O)N1CCC[C@H]1C(=O)N[C@H](C(=O)N[C@@H](CC(N)=O)C(=O)N[C@H](C(=O)NCC(=O)N[C@@H](CO)C(=O)N[C@@H](CCC(=O)O)C(=O)N[C@@H](C)C(=O)N[C@@H](Cc1ccccc1)C(N)=O)C(C)C)[C@@H](C)O)C(C)C)C(C)C)C(C)C` [CGRP(1–37), calcitonin gene-related peptide] registered an IC50 against Prep [1] of 2000 nM.

Regarding APPEPVPPPRAAPAPTHV, the fragment found entry in the series with Prep [2] is given as “Vgf(490–502)”.

Turning to GGVVKDNFVPTNVGSEAF-NH2, the fragment found entry with recombinant Prep was “CGRP(30–37)”.

With GGVVKDNFVPTNVGSEAF-NH2 [CGRP(20–37)], the “Levels of Prep substrates in the spinal cord 1 hour and 4 hours after i.p. S17092 administration” value at Prep [3] is “significantly elevated at 1 hour (gray bar) and 4 hours”.

With MDELYPMEPEEEANGGEILA, the fragment found entry in the series on Prep [2] was “Penk(123–133)”.
